Data reported in patent US20220235065A1 (Epizyme, Inc., priority 2016, published 2022).
Where a name gives a salt, the structure may show the parent alone.

Target: T1, recombinant purified human EHMT2 913-1193 (Homo sapiens, UniProt Q96KQ7)
T1 construct: Recombinant purified human EHMT2 913-1193 (55 μM) synthesized by Viva was used for all experiments; purchased Viva
T1 sequence (Q96KQ7 913-1193): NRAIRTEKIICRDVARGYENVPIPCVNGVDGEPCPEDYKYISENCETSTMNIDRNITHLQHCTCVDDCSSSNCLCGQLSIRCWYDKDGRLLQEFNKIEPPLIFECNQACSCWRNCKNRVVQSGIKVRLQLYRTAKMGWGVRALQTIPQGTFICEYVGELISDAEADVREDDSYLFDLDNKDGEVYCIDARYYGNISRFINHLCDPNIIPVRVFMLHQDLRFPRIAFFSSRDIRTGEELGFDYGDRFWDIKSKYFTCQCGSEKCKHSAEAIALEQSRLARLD
Assay: EHMT2 enzyme assay on histone peptide substrate (3H-SAM Flashplate)
Format: biochemical
Details: read-out: EHMT2 PEP (IC50 μM)
Method: Recombinant purified human EHMT2 913-1193 (55 μM) synthesized by Viva was used for all experiments. Biotinylated histone peptides were synthesized by Biopeptide and HPLC-purified to >95% purity. Streptavidin Flashplates and seals were purchased from PerkinElmer and 384 Well V-bottom Polypropylene Plates were from Greiner. ^3H-labeled S-adenosylmethionine (3H-SAM) was obtained from American Radiolabeled Chemicals with a specific activity of 80 Ci/mmol. Unlabeled SAM and S-adenosylhomocysteine (SAH) were obtained from American Radiolabeled Chemicals and Sigma-Aldrich respectively. Flashplates were washed in a Biotek ELx-405 with 0.1% Tween. 384-well Flashplates and 96-well filter binding plates were read on a TopCount microplate reader (PerkinElmer). Compound serial dilutions were performed on a Freedom EVO (Tecan) and spotted into assay plates using a Thermo Scientific Matrix PlateMate (Thermo Scientific). Reagent cocktails were added by Multidrop Combi (Thermo Scientific).
General Procedure for EHMT2 Enzyme Assay on Histone Peptide Substrate.
10-point curves of test compounds were made on a Freedom EVO (Tecan) using serial 3-fold dilutions in DMSO, beginning at 2.5 mM (final top concentration of compound was 50 μM and the DMSO was 2%). A 1 μL aliquot of the inhibitor dilution series was spotted in a polypropylene 384-well V-bottom plate (Greiner) using a Thermo Scientific Matrix PlateMate (Thermo Scientific). The 100% inhibition control consisted of 1 mM final concentration of the product inhibitor S-adenosylhomocysteine (SAH, Sigma-Aldrich). Compounds were incubated for 30 minutes with 40 μL per well of 0.031 nM EHMT2 (recombinant purified human EHMT2 913-1193, Viva) in 1× assay buffer (20 mM Bicine [pH 7.5], 0.002% Tween 20, 0.005% Bovine Skin Gelatin and 1 mM TCEP). 10 μL per well of substrate mix comprising assay buffer, ^3H-SAM (3H-labeled S-adenosylmethionine, American Radiolabeled Chemicals, specific activity of 80 Ci/mmol), unlabeled SAM (American Radiolabeled Chemicals), and peptide representing histone H3 residues 1-15 containing C-terminal biotin (appended to a C-terminal amide-capped lysine, synthesized by Biopeptide and HPLC-purified to greater than 95% purity) were added to initiate the reaction (both substrates were present in the final reaction mixture at their respective Km values, an assay format referred to as “balanced conditions”). Reactions were incubated for 60 minutes at room temperature and quenched with 10 μL per well of 400 μM unlabeled SAM, then transferred to a 384-well streptavidin Flashplate (PerkinElmer) and washed in a Biotek ELx-405 well washer with 0.1% Tween after 60 minutes. 384-well Flashplates were read on a TopCount microplate reader (PerkinElmer).
IC50 curves were generated using triplicate wells per concentration of compound. The IC50 is the concentration of compound at which measured methylation is inhibited by 50% as interpolated from the dose response curves. IC50 values were calculated using a non-linear regression (variable slope-four parameter fit model) with by the following formula
where Top is fixed at 100% and Bottom is fixed to 0%, [I]=concentration of inhibitor, IC50=half maximal inhibitory concentration and n=Hill Slope.

CCNCc1cnn(-c2cc(Nc3nccc(NC)n3)ccc2OC)c1 [Compound 185]
IC50: 0.1 to 1 µM

CNc1cc(C)nc(Nc2cnc(OC)c(-n3cc(C4CCCN4)cn3)c2)n1 (centres unmarked) [Compound 188]
IC50: 0.1 to 1 µM

CNc1cc(C)nc(Nc2ccc(C)c(C(=O)Nc3cccnc3)c2)n1 [Compound 239]
IC50: > 10 µM

CNc1cc(C)nc(Nc2ccc(OC)c(-c3[nH]c4cnccc4c3F)c2)n1 [Compound 199]
IC50: < 0.1 µM

CNc1cc(C)nc(Nc2ccc(OC)c(-n3cc([C@@H]4CCCN4)nn3)c2)n1 [Compound 212, (S)—N2-(4-methoxy-3-(4-(pyrrolidin-2-yl)-1H-1,2,3-triazol-1-yl)phenyl)-N4,6-dimethylpyrimidine-2,4-diamine]
IC50: < 0.1 µM

CNCc1cnn(-c2cc3c(cc2OC)C2(CCC2)C(N)=N3)c1 [Compound 186]
IC50: < 0.1 µM

CNc1ccnc(Nc2ccc(OC)c(-n3cc(CNCC4CC4)nn3)c2)n1 [Compound 173]
IC50: 1 to 10 µM

CNc1cc(-c2cc(Nc3nc(C)cc(NC)n3)ccc2OC)ncn1 [Compound 225]
IC50: 1 to 10 µM

CNc1cc(C)nc(Nc2ccc(OC)c(-c3cc4[nH]ccc4cn3)c2OC)n1 [Compound 220]
IC50: > 10 µM

CNc1cc(C)nc(Nc2ccc(OC)c(-n3ncc4c3CCN(C)C4)c2)n1 [Compound 10]
IC50: 0.1 to 1 µM

CNc1cc(C)nc(Nc2ccc(OC)c(-c3nc4n(n3)CCN(C)C4)c2)n1 [Compound 9]
IC50: > 10 µM

CNc1cc(C)nc(Nc2ccc(OC)c(-c3nnc(C)[nH]3)c2)n1 [Compound 11]
IC50: > 10 µM

COc1cc(NC2CCNCC2)ccc1-c1cc2[nH]ccc2cn1 [Compound 231]
IC50: 1 to 10 µM

CNc1cc(C)nc(Nc2ccc(Cl)c(C(=O)Nc3cccnc3)c2)n1 [Compound 240]
IC50: > 10 µM

CNc1cc(C)nc(Nc2ccc(OC)c(-n3cc4ccccc4n3)c2)n1 [Compound 146]
IC50: > 10 µM

CNc1nc2cc(-c3cc4[nH]ccc4cn3)c(OC)cc2n1C [Compound 209]
IC50: 1 to 10 µM

CNc1cc(C)nc(Nc2ccc(OC)c(-c3ccc4cc(C)[nH]c4c3)c2)n1 [Compound 156]
IC50: > 10 µM

CNC1=Nc2cc(-c3[nH]c4cnccc4c3C)c(OC)cc2C12CCC2 [Compound 238, 5′-methoxy-N-methyl-6′-(3-methyl-1H-pyrrolo[2,3-c]pyridin-2-yl)spiro[cyclobutane-1,3′-indol]-2′-amine]
IC50: < 0.1 µM

CNCc1cnn(-c2cc3nc(NC)n(C)c3cc2OC)c1 [Compound 179]
IC50: 0.1 to 1 µM

CNc1cc(C)nc(Nc2ccc(OC)c(-c3cc4[nH]ccc4c(C)n3)c2)n1 [Compound 237]
IC50: < 0.1 µM

CCNCc1cn(-c2cc(Nc3nccc(NC)n3)ccc2OC)nn1 [Compound 172]
IC50: 0.1 to 1 µM

CNc1cc(C)nc(Nc2cccc(C(=O)Nc3cccnc3)c2)n1 [Compound 242]
IC50: > 10 µM

CNc1nc2cc(-n3cc(CN(C)C)nn3)c(OC)cc2n1C [Compound 163]
IC50: 1 to 10 µM

CNc1ccnc(Nc2ccc(OC)c(-n3cc(C4CC4)nn3)c2)n1 [Compound 176]
IC50: 1 to 10 µM

CNc1cc(C)nc(Nc2ccc(C)c(-c3cc4ccncc4[nH]3)c2)n1 [Compound 241]
IC50: < 0.1 µM

CNc1cc(C)nc(Nc2ccc(OC)c(-c3cc(C4CC4)cnn3)c2)n1 [Compound 233]
IC50: 1 to 10 µM

CNc1ccnc(Nc2ccc(OC)c(-n3cc(CNC4CCC4)nn3)c2)n1 [Compound 191]
IC50: 1 to 10 µM

COc1cc2c(cc1-n1cc([C@H]3CCCN3)nn1)N=C(N)C21CCC1 [Compound 193]
IC50: < 0.1 µM

CNc1cc(-c2cc(Nc3nc(C)cc(NC)n3)ccc2OC)nc(C)n1 [Compound 230]
IC50: 0.1 to 1 µM

CNC1=Nc2cc(-c3cc4[nH]ccc4cn3)c(OC)cc2C12CCC2 [Compound 214]
IC50: < 0.1 µM

CNc1cc(C)nc(Nc2ccc(OC)c(-c3cn4c(n3)CNCC4)c2)n1 [Compound 7]
IC50: 1 to 10 µM

CNc1ccnc(Nc2ccc(OC)c(-n3cc(C4COC4)nn3)c2)n1 [Compound 177]
IC50: > 10 µM

COc1cc2c(cc1-n1cc([C@@H]3CCCN3)nn1)N=C(N)C21CCC1 [Compound 195]
IC50: 0.1 to 1 µM

CNc1cc(C)nc(Nc2ccc(OC)c(-c3nc4n(n3)CCNC4)c2)n1 [Compound 8, 2-N-(4-methoxy-3-[4H,5H,6H,7H-[1,2,4]triazolo[1,5-a]pyrazin-2-yl]phenyl)-4-N,6-dimethylpyrimidine-2,4-diamine hydrochloride]
IC50: > 10 µM

CNc1cc(C)nc(Nc2ccc(OC)c(-c3cc4[nH]ccc4cn3)c2F)n1 [Compound 221]
IC50: 0.1 to 1 µM

CNc1cc(C)nc(Nc2cnc(OC)c(-c3cc4ccncc4[nH]3)c2)n1 [Compound 204]
IC50: 1 to 10 µM

CNc1cc(C)nc(Nc2ccc(OC)c(-c3cc4[nH]cc(F)c4cn3)c2)n1 [Compound 229]
IC50: 0.1 to 1 µM

CNc1cc(C)nc(Nc2ccc(OC)c(-c3ccc4nc(C)[nH]c4c3)c2)n1 [Compound 155]
IC50: > 10 µM

CNC1=Nc2cc(-c3cc4ccncc4[nH]3)c(OC)cc2C12CCC2 [Compound 215]
IC50: < 0.1 µM

CNc1ccnc(Nc2ccc(OC)c(-c3cc4[nH]ncc4cn3)c2)n1 [Compound 174]
IC50: > 10 µM

CNc1cc(C)nc(Nc2ccc(OC)c(-c3cc4cnoc4cn3)c2)n1 [Compound 235]
IC50: > 10 µM

CNCc1cnn(-c2cc(Nc3nccc(NC)n3)ccc2OC)c1 [Compound 181, N2-(4-methoxy-3-(4-((methylamino)methyl)-1H-pyrazol-1-yl)phenyl)-N4-methylpyrimidine-2,4-diamine]
IC50: < 0.1 µM

CNc1ccnc(Nc2ccc(OC)c(-c3ccc4cc[nH]c4c3)c2)n1 [Compound 178]
IC50: > 10 µM

CNc1cc(C2CCOCC2)c2cc(OC)c(-n3cc(C4CCCN4)nn3)cc2n1 (centres unmarked) [Compound 196]
IC50: 0.1 to 1 µM

CNc1cc(C)nc(Nc2ccc(OC)c(-c3cnc4cc[nH]c4c3)c2)n1 [Compound 223]
IC50: < 0.1 µM

CNc1cc(C)nc(Nc2ccc(OC)c(-c3cc4[nH]c(C)cc4cn3)c2)n1 [Compound 207]
IC50: < 0.1 µM

CNc1cc(C)nc(Nc2ccc(OC)c(-n3cc([C@H]4CCCN4)nn3)c2)n1 [Compound 213]
IC50: 0.1 to 1 µM

CNCc1cnn(-c2cc3nc(NC)cc(C4CCOCC4)c3cc2OC)c1 [Compound 184]
IC50: 0.1 to 1 µM

CNc1cc(C)nc(Nc2ccc(OC)c(-c3cc4ccncc4[nH]3)c2)n1 [Compound 157, N2-(4-methoxy-3-(1H-pyrrolo[2,3-c]pyridin-2-yl)phenyl)-N4,6-dimethylpyrimidine-2,4-diamine]
IC50: < 0.1 µM

CNc1cc(C)nc(Nc2ccc(OC)c(-n3cc(CN(C)C)c(C)n3)c2)n1 [Compound 160]
IC50: < 0.1 µM

CNc1cc(C)nc(Nc2ccc(OC)c(-n3cc(C(C)NC)nn3)c2)n1 (centres unmarked) [Compound 164]
IC50: 0.1 to 1 µM

CNc1ccnc(Nc2ccc(OC)c(-c3cc4[nH]ccc4cn3)c2)n1 [Compound 175, N2-(4-methoxy-3-(1H-pyrrolo[3,2-c]pyridin-6-yl)phenyl)-N4-methylpyrimidine-2,4-diamine]
IC50: < 0.1 µM

CNc1ccnc(Nc2ccc(OC)c(-n3cc(CN(C)C)nn3)c2)n1 [Compound 171]
IC50: < 0.1 µM

CNCc1cnn(-c2cc3c(cc2OC)C2(CCC2)C(NC)=N3)c1 [Compound 187]
IC50: < 0.1 µM

CNc1cc(C)nc(Nc2ccc(OC)c(-n3cc(C(NC)C(F)(F)F)nn3)c2)n1 (centres unmarked) [Compound 165]
IC50: > 10 µM

COc1cc(NC2CCNCC2)ncc1-c1cc2ccncc2[nH]1 [Compound 205]
IC50: > 10 µM

CNc1cc(C)nc(Nc2ccc(OC)c(-c3cc4c(cn3)CC(=O)N4)c2)n1 [Compound 219]
IC50: 1 to 10 µM

CNc1ccnc(Nc2ccc(OC)c(-n3cnc(CN(C)C)c3)c2)n1 [Compound 170]
IC50: 0.1 to 1 µM

CNc1cc(C)nc(Nc2ccc(OC)c(-c3ccc4c(c3)NC(=O)C4)c2)n1 [Compound 218]
IC50: > 10 µM
